The text below walks through data of PMC10776687 (Nature Communications, 2024).

What all share (assay type): cell-based
Assay [1] addresses T1, human serotonin transporter (SERT) (Homo sapiens, UniProt P31645).
T1 construct: gene SLC6A4; human WT SERT, N-terminal eYFP fusion, stably expressed in HEK293 cells
As to the kind of experiment: [3H]5HT uptake inhibition in HEK293 cells; whole-cell patch clamp (partial substrate, kon/koff).

In assay [2] the target is T1, human serotonin transporter (SERT). As to the kind of experiment: [3H]5HT uptake kinetics (Km/Vmax) in HEK293 cells at the compound's IC50, n = […].
Assay [3] has the same target. As to the kind of experiment: [3H]5HT uptake inhibition in HEK293 cells; whole-cell patch clamp (almost pure inhibitor).
The target is the same in assay [4]. As to the kind of experiment: [3H]5HT uptake inhibition in HEK293 cells; whole-cell patch clamp (partial substrate, kon/koff); efflux.

T1 sequence (P31645 whole entry, the tested form may be a part): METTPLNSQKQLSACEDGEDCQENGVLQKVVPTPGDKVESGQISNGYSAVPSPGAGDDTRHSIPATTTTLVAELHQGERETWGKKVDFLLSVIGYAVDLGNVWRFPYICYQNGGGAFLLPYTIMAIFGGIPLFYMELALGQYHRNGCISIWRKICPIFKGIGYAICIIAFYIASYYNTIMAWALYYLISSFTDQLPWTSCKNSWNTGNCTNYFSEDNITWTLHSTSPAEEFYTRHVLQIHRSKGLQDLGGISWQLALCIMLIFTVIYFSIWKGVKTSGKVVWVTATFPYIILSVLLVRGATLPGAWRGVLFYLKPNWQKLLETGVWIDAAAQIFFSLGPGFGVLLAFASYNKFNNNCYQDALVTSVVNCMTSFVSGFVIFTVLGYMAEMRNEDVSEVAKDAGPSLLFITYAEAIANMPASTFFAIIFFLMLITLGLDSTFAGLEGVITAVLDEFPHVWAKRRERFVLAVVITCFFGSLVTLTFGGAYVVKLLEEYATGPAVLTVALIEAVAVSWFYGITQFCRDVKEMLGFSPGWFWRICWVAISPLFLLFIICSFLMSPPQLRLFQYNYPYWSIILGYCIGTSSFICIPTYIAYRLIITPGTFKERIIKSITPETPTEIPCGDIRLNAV

The molecule `NCCCCc1c[nH]c2ccc(O)cc12` [B-5HT, butyl (B)-5HT] had an IC50 in assay [1] of 0.27 µM.
`COC(=O)[C@H]1[C@@H](OC(=O)c2ccccc2)C[C@@H]2CC[C@H]1N2C` [COC, cocaine]: the half-maximal inhibitory concentration (IC50) in assay [2] stood at 4 µM.
The same measure, in the same setting: the result for `CC[C@H]1C[C@@H]2C[C@H]3c4[nH]c5ccc(OC)cc5c4CCN(C2)[C@@H]13` [IBO, ibogaine] reads 24 µM.
Molecule `NCc1c[nH]c2ccc(O)cc12` [M-5HT] displayed a half-inhibitory concentration (IC50) in assay [3] of 79.3 µM.
In turn, `NCCCc1c[nH]c2ccc(O)cc12` [P-5HT, propyl (P)-5HT] displayed an IC50 in assay [4] of 0.59 µM.
